Measured values as given in patent US12622916B2, “Use of H3K9me3 modulation for enhancing cognitive function” (THE REGENTS OF THE UNIVERSITY OF CALIFORNIA, priority 2015, dated 2026).
Entries after “also recorded” stand apart in the source; their conditions may differ.

What was measured:
[1] = system: 14 DIV hippocampal neurons; experiment: PSD-95 immunoreactivity and dendritic F-actin staining in hippocampal neurons; type: cell-based; details: 20 nM, 24 hours
Excerpt: Neurons were stained with antibodies against PSD-95 (red) and MAP2 (green). Scale bars: 10 μm, top panel; 2 μm, bottom panel.
Note presence of numerous puncta marking presence of many spines. Top panel: Control, bottom panel: ETP treated neurons. Scale bar: 2 μm.

Arc = Arc changes after ETP69 treatment (data not shown); type: in vivo, mice
[2] = target: histone acetyltransferase p300 (Homo sapiens, UniProt Q09472); experiment: Inhibitory activity towards histone acetyltransferase p300; type: biochemical
Excerpt: (§1) In accordance with one or more embodiments of the present invention, the role of H3K9me3 in learning and memory in an animal model of aging using a newly developed analog of the epidithiodiketopiperazine alkaloid chaetocin A called ETP69, illustrated in FIG. 1, is studied.

[3] = target: DNA methyltransferase DNMT1 (Homo sapiens, UniProt P26358); experiment: Inhibitory activity towards DNA methyltransferase DNMT1; type: biochemical
[4] = system: panel of 17 human histone methytransferases; experiment: Selectivity against a panel of 17 human histone methyltransferases; type: biochemical; details: versus chaetocin A
Excerpt: as §1

H3K9me3 = experiment: Histone H3K9 trimethylation level in brain tissue extracts of aged mice; type: in vivo
BDNF = experiment: ELISA for BDNF protein in hippocampus; type: in vivo; details: aged mice; 10 mg/kg i.p. before or right after OLM acquisition; versus controls
Method: Acquisition (pre-training) or Consolidation (post-training): In another test, aimed to determine the efficacy of the compound in pre and post training paradigms, the same group of 22 aged animals were retested on the OLM task 3 weeks after the first test. To determine whether the drug impacted acquisition or consolidation mechanisms, mice were injected with the 10 mg/kg compound (i.p. n=7) or vehicle (n=8). Animals were sacrificed right after retention testing (i.e. 24 hours post injection), and hippocampi were removed, rapidly frozen on dry ice, and stored at −80° C. until processing for trimethylation levels and BDNF assay. FIG. 2 is a graphical representation of the effect of the drug at 10 mg/kg and 20 mg/kg (i.p) administered 30 minutes prior to acquisition phase in the novel place position task in mice. […] Data are mean±SEM; n=7 or 8/group.
ELISA was performed using the BDNF Emax Immunoassay System (G7610, Promega) according to the manufacturer's instructions. Two sets of samples were prepared from the hippocampus of each animal, and all reactions were performed in duplicate.

bdnf promoters = experiment: ChIP for H3K9me3 at BDNF promoter regions in hippocampus; type: in vivo; details: aged mice, ETP69 versus controls
Method: ChIP for BDNF promoter regions: After cross-linking with 1% formaldehyde, chromatin was sheared to fragments of 200-500 bp. Immunoprecipitation was realized overnight at 4° C. with an antibody directed against histone H3K9me3 (H3K9me3; Millipore). After washes, elution from beads, and reversal of the cross-link, immunoprecipitated DNA was purified and analyzed in triplicate by qRT-PCR with an internal standard curve prepared from pooled input samples. Each sample was normalized with the respective input value. Primers for bdnf promoters for exon I, IV, and VI correspond to each unique exon sequence. RT-qPCR primer sets were designed using the Roche Universal Probe Library Assay Design Center and obtained from Integrated DNA Technologies (Coralville, IA). RT-qPCR reactions were run in a Stratagene MX3005P thermocycler at 95° C. for 3 min, followed by 45 cycles of 95° C. for 10 s, and 58° C. for 15 s. Each RT-qPCR run included all samples run in triplicate and a standard curve. Data were analyzed by the 2^−ΔΔct method and expressed as fold change over control after normalizing with input samples, as described previously.

young C57Bl/6J male mice = experiment: Object location memory (OLM) task in young mice; type: in vivo
Method: Object Location Memory (OLM): Training and testing procedures were performed using a standard OLM protocol. Briefly, 22 aged mice and 18 young mice were handled for about 2-3 minutes per day for 5 days, followed by habituation to the experimental apparatus (white rectangular open field measuring 30×23×21.5 cm) for 5 min per day for 5 consecutive days before training.
18 young mice were also tested in the same OLM paradigm as described above. To determine whether the drug impacted acquisition or consolidation mechanisms, the young mice were injected with the 10 mg/kg compound or vehicle (i.p, n=6/group), either just before or right after the acquisition trial, and tested 24 hours post-acquisition. FIG. 3 is a graphical representation of the results of OLM test showing the differences in exploration between mice treated with either vehicle, or 10 mg/kg of ETP69. […] Data are mean±SEM; n=7 or 8/group.

[5] = system: 14 DIV hippocampal neurons; experiment: Oxygen-glucose deprivation (OGD)-induced cytotoxicity, LDH assay; type: cell-based; details: OGD 2 hours, LDH 48 hours after OGD
Method: OGD in 14 DIV hippocampal neurons was induced by an approach similar to that described by Newcomb-Fernandez et al (2001). Normal media was replaced with PBS and culture plates were placed in an airtight chamber. The chamber was flushed with N2 and CO2 for 3 minutes, sealed, and placed in a 37° C. incubator for 2 hours. PBS was replaced with DMEM (serum-free) and cultures were returned to a normoxic environment. Culture medium was collected 48 hours after the cultures had returned to a normal environment. The cytotoxicity was measured by LDH assay (Thermo-Fisher). To calculate % Cytotoxicity, subtract the LDH activity of the Spontaneous LDH, release Control (water-treated) from the chemical-treated sample LDH activity, divide by the total LDH activity [(Maximum LDH Release Control activity)—(Spontaneous LDH Release Control activity)], and multiply by 100:
Initially we tested the effect of ETP69 on oxygen-glucose deprivation (OGD)-induced cytotoxicity. Mature hippocampal neurons (14 DIV) were treated with OGD for 2 hours in the presence or absence of ETP69. Cytotoxicity was measured by LDH assay 48 hours after OGD. […] FIG. 13 is a graphical illustration of the effect of ETP69 on neuronal survival after oxygen-glucose deprivation (OGD). 14 DIV hippocampal neurons were treated with OGD for 2 hours in the presence or absence of ETP. Cytotoxicity was measured by LDH assay 48 hours after OGD. […]

Sequence of histone acetyltransferase p300 (Q09472 whole entry, species assumed): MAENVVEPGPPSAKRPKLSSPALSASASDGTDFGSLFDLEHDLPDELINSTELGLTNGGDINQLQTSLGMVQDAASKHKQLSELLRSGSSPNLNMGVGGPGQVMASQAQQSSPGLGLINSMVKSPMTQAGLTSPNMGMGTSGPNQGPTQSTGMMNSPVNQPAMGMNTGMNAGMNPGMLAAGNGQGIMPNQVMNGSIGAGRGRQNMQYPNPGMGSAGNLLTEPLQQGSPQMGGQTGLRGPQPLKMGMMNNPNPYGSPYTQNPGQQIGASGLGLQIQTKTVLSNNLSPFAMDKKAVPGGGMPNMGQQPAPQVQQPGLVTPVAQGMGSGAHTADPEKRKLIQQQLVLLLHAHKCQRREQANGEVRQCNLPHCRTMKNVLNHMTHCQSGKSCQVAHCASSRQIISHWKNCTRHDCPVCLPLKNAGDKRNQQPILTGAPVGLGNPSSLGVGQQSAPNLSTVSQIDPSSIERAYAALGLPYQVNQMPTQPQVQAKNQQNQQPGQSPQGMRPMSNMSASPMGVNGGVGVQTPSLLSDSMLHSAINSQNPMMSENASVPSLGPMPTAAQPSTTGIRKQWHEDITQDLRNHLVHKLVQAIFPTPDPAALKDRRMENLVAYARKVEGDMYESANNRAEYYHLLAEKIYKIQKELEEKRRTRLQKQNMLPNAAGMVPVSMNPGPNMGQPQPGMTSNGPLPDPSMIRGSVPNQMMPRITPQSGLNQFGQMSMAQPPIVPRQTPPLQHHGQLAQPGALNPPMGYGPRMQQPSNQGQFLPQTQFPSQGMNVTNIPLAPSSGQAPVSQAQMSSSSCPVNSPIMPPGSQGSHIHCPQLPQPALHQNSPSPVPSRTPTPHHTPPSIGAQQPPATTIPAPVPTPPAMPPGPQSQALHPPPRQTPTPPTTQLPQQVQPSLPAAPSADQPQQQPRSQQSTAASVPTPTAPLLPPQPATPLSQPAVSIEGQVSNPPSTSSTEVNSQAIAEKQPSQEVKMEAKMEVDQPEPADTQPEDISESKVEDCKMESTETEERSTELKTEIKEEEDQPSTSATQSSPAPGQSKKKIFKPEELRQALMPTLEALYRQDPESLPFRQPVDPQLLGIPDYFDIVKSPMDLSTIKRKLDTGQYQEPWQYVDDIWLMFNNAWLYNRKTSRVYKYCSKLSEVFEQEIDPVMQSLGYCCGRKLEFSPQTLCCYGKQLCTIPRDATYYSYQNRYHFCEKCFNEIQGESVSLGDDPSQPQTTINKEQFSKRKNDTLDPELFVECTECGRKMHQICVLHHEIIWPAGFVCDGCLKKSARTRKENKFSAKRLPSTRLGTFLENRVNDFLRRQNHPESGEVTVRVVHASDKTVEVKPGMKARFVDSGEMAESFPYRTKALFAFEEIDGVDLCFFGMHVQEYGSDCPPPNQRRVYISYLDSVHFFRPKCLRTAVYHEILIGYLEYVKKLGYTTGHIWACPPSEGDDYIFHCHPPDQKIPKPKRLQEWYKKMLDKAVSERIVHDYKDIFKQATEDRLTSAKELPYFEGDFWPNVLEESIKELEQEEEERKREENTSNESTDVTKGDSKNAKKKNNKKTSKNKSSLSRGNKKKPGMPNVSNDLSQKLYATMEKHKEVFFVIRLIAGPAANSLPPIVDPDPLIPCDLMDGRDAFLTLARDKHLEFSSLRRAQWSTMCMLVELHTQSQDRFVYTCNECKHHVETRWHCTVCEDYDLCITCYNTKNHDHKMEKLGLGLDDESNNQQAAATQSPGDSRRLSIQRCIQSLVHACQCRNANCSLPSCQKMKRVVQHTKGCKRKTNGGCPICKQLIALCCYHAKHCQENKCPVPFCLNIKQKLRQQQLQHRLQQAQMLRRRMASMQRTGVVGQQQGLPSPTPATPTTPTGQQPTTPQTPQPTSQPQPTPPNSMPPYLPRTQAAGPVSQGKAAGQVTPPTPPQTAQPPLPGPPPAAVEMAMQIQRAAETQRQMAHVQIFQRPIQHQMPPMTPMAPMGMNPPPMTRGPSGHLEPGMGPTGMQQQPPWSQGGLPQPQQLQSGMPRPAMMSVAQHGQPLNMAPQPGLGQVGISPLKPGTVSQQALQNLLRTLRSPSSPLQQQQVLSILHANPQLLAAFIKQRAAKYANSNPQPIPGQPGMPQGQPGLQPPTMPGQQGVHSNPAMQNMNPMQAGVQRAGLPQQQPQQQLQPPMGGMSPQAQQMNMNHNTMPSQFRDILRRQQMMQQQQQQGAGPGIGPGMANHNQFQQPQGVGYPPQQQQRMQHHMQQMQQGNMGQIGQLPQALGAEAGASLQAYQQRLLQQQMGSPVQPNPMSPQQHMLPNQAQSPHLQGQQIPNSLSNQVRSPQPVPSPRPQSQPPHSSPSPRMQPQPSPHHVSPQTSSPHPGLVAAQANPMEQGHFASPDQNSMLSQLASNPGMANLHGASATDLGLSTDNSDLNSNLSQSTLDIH
Sequence of DNA methyltransferase DNMT1 (P26358 whole entry): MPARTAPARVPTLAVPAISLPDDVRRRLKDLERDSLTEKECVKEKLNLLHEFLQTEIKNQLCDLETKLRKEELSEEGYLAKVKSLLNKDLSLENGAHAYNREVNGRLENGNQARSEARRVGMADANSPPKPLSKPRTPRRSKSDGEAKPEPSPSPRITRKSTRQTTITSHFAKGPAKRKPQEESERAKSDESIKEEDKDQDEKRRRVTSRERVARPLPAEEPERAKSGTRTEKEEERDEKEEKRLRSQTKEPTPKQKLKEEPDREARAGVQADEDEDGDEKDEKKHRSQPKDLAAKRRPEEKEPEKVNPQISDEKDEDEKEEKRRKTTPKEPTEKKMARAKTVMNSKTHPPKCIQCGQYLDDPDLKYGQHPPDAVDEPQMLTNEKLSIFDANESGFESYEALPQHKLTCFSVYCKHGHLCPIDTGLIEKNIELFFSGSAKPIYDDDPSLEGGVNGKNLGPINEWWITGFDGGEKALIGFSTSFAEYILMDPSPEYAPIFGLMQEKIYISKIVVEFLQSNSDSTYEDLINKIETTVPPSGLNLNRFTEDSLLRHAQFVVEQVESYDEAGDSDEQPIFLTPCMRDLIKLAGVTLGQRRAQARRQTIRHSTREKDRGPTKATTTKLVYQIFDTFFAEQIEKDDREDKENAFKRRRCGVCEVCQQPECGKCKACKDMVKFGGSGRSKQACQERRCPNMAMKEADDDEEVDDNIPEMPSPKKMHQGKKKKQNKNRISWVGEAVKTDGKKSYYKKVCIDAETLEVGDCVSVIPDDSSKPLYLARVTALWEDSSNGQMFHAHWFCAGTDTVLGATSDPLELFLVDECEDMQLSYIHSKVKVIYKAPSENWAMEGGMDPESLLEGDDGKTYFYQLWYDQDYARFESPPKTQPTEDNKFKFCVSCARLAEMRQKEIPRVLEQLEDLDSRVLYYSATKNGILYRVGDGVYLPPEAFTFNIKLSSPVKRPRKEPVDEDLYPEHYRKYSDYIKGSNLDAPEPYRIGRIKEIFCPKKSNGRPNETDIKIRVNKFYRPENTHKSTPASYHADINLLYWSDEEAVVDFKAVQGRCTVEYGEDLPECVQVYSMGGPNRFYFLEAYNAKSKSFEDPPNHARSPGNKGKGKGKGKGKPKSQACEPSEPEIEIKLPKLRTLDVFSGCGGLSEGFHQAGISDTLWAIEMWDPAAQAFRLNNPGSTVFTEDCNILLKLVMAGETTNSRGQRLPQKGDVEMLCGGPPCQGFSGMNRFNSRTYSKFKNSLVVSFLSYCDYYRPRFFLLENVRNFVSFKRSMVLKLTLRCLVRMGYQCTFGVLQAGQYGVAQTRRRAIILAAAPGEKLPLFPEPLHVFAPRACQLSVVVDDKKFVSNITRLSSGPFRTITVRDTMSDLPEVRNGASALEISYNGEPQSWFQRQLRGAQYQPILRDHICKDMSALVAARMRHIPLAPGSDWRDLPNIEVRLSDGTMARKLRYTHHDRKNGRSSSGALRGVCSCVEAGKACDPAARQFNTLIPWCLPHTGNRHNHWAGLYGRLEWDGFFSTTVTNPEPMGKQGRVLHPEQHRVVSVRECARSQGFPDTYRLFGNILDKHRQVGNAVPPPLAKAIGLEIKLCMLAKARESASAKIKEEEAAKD

CN1C(=O)[C@@]23C[C@](C)(C#N)[C@H](c4ccc5c(c4)OCO5)N2C(=O)[C@]1(C)SS3 (racemic) [ETP69, Rac-(3S,6S,7S,8aS)-6-(benzo[d][1,3]dioxol-5-yl)-2,3,7-trimethyl-1,4-dioxohexahydro-6H-3,8a-epidithiopyrrolo[1,2-a]pyrazine-7-carbonitrile]
PSD-95 immunoreactivity [1]: increased PSD-95 immunoreactivity | dendritic F-actin staining [1]: increased dendritic F-actin staining | changes in Arc (Arc): did not observe changes in Arc | inhibitory activity towards histone acetyltransferase p300 [2]: no inhibitory activity | inhibitory activity towards DNA methyltransferase DNMT1 [3]: no inhibitory activity | selectivity against a panel of 17 human histone methytransferases compared with chaetocin A [4]: significantly greater selectivity | H3K9me3 levels in hippocampus (H3K9me3; 10 mg/kg i.p., 24 hours post drug, hippocampal histone extracts): decreases in H3K9me3 levels | H3K9me3 levels in cerebellum (H3K9me3; ETP69-treated versus untreated, cerebellum): no significant difference | BDNF protein levels in hippocampus (BDNF): significantly elevated levels of BDNF | H3K9me3 at bdnf promoter I (Exon 1) (bdnf promoters): significant effect of treatment; also recorded: significantly lower | OLM acquisition phase: group differences (young C57Bl/6J male mice; 10 mg/kg i.p.): no significant group differences | OLM performance, pre-trial administration (young C57Bl/6J male mice; 10 mg/kg i.p. 30 minutes prior to acquisition phase): did not show any statistical differences | OLM performance, post-trial administration (young C57Bl/6J male mice; 10 mg/kg i.p. immediately after acquisition): did not show any statistical differences | OGD-induced cytotoxicity (LDH) ([5]; 4 nM): rescued neurons from OGD-induced cytotoxicity | OGD-induced cytotoxicity (LDH) ([5]; 100 nM): not 100 nM rescued neurons from OGD-induced cytotoxicity
